Experimental data from patent US11597746B2, “Cyclic dinucleotides as sting agonists” (JANSSEN BIOTECH, INC., priority 2018, dated 2023).
pEC50, pIC50: −log10 of the molar value.

What follows are molecules tested against human STING (Homo sapiens (Human), UniProt Q86WV6, H232R) (assay: STING SPA binding assay). Details: displacement of [3H]-2′3′-cGAMP from biotinylated recombinant STING (residues 139-379, H232R); read-out: hSTING SPA IC50.
Chain of human STING (Q86WV6 139-379 H232R): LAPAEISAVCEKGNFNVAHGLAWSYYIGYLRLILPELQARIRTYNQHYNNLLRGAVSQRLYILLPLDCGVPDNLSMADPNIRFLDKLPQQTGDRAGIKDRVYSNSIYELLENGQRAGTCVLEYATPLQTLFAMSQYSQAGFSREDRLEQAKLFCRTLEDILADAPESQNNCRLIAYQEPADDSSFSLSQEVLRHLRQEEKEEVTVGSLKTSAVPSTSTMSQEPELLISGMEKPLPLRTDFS
`Nc1nc2c(ncn2[C@@H]2O[C@@H]3COP(=O)(O)O[C@H]4[C@@H](F)[C@H](n5cnc6c(N)ncnc65)O[C@@H]4CNS(=O)(=O)O[C@H]3[C@H]2OCc2ccccc2)c(=O)[nH]1` [Compound 46] was tested, and the pIC50 was < 4.00. In the case of `COc1ccc(CO[C@@H]2[C@@H]3OS(=O)(=O)NC[C@H]4O[C@@H](n5cnc6c(N)ncnc65)[C@H](F)[C@@H]4OP(=O)(O)OC[C@H]3O[C@H]2n2cnc3c(N)ncnc32)cc1` [Compound 15-R], the pIC50 was < 4.00.

Same assay, conditions: natural ligand
In the case of `Nc1nc2c(ncn2[C@@H]2O[C@@H]3COP(=O)(O)O[C@H]4[C@@H](O)[C@H](n5cnc6c(=O)[nH]c(N)nc65)O[C@@H]4COP(=O)(O)O[C@H]3[C@H]2O)c(=O)[nH]1` [cyclic-di-GMP, reference compound], the “values in STING SPA binding assay” value was “within the expected range”.

Each molecule was assayed on human STING pathway in THP1-ISG cells (assay: STING human cell reporter assay). Details: IRF-inducible SEAP reporter, 24 h.
Assay type: cell-based
Description: STING Human Cell Reporter Assay
Agonism of the human STING pathway is assessed in THP1-ISG cells (Invivogen, cat #thp-isg) derived from human THP1 monocyte cell line by stable integration of an interferon regulatory factor (IRF)-inducible SEAP reporter construct. THP1-Blue ISG cells express a secreted embryonic alkaline phosphatase (SEAP) reporter gene under the control of an ISG54 minimal promoter in conjunction with five interferon (IFN)-stimulated response elements. As a result, THP1-Blue ISG cells allow the monitoring of IRF activation by determining the activity of SEAP. The levels of IRF-induced SEAP in the cell culture supernatant are readily assessed with alkaline phosphatase detection medium, a SEAP detection reagent. These cells are resistant to Zeocin. 2′3′cGAMP was used as a positive control in this assay. To run the assay, 60,000 cells were dispensed in 30 μL/well of a white, opaque bottom tissue culture treated 384-well plate.
Test compounds were added in a volume of 10 μL (1% DMSO final concentration). Compounds are initially prepared in 100% DMSO, spotted on an intermediate dilution plate and then diluted in media prior to transfer. The assay was incubated for 24 h at 37° C., 5% CO2 then plates were centrifuged at 1200 rpm (120×g) for 5 min. After final incubation, 90 μL of alkaline phosphatase detection medium-substrate was added to each well of a new 384-well clear plate and 10 μL of the cell supernatant was transferred from the assay plate to the new alkaline phosphatase detection medium-plate using a Biomek FX and mixed 4 times.
In the case of `Nc1ncnc2c1ncn2[C@@H]1O[C@@H]2CNS(=O)(=O)O[C@H]3[C@@H](F)[C@H](n4cnc5c(=O)[nH]cnc54)O[C@@H]3CO[P@@](=O)(S)O[C@H]2[C@H]1F` [Compound 17-R], the pEC50 was 6.01. Molecule `Nc1ncnc2c1ncn2[C@@H]1O[C@@H]2CO[P@@](=O)(S)O[C@H]3[C@@H](F)[C@H](n4cnc5c(=O)[nH]cnc54)O[C@@H]3CNS(=O)(=O)O[C@H]2[C@H]1F` (single isomer, unassigned) [Compound 31-R] has a pEC50 of 6.03. `Nc1nc2c(ncn2[C@@H]2O[C@@H]3CO[P@@](=O)(S)O[C@H]4[C@@H](F)[C@H](n5cnc6c(N)ncnc65)O[C@@H]4CNS(=O)(=O)O[C@H]3[C@@H]2F)c(=O)[nH]1` (single isomer, unassigned) [Compound 34-R] gave a pEC50 of 4.63. In the case of `Nc1ncnc2c1ncn2[C@@H]1O[C@@H]2CNS(=O)(=O)O[C@H]3C[C@H](n4cnc5cc(Cl)c(Cl)cc54)O[C@@H]3COP(=O)(O)O[C@H]2[C@H]1F` [Compound 32], the pEC50 was 6.74. Work on `Nc1ncnc2c1ncn2[C@@H]1O[C@@H]2COP(=O)(O)O[C@H]3C[C@H](n4cnc5c(N)ncnc54)O[C@@H]3CNS(=O)(=O)O[C@H]2[C@H]1F` [Compound 6] yielded a pEC50 of 5.53. In the case of `Nc1ncnc2c1ncn2[C@@H]1O[C@@H]2CNS(=O)(=O)O[C@H]3C[C@H](n4ncc5c(=O)[nH]cnc54)O[C@@H]3COP(=O)(O)O[C@H]2[C@H]1F` [Compound 39], the pEC50 was < 4.00. In the case of `Nc1nc2c(ncn2[C@@H]2O[C@@H]3COP(=O)(O)O[C@H]4[C@@H](F)[C@H](n5cnc6c(N)ncnc65)O[C@@H]4CNS(=O)(=O)O[C@H]3[C@H]2OCc2ccccc2)c(=O)[nH]1` [Compound 46], the pEC50 was < 4.00. Molecule `Nc1nc2c(ncn2[C@@H]2O[C@@H]3CO[P@](=O)(S)O[C@H]4[C@@H](F)[C@H](n5cnc6c(N)ncnc65)O[C@@H]4CNS(=O)(=O)O[C@H]3[C@H]2F)c(=O)[nH]1` (single isomer, unassigned) [Compound 18-S] has a pEC50 of 4.68. `Nc1ncnc2c1ncn2[C@@H]1O[C@@H]2CNS(=O)(=O)O[C@H]3[C@@H](F)[C@H](n4cnc5c(=O)[nH]cnc54)O[C@@H]3CO[P@](=O)(S)O[C@H]2[C@H]1F` [Compound 17-S] was tested, and the pEC50 was 5.37. `Nc1nc2c(ncn2[C@@H]2O[C@@H]3CNS(=O)(=O)O[C@H]4[C@H](F)[C@H](n5cnc6c(N)ncnc65)O[C@@H]4CO[P@@](=O)(S)O[C@H]3[C@H]2F)c(=O)[nH]1` (single isomer, unassigned) [Compound 16-R] gave a pEC50 of 5.74. Work on `Nc1ncnc2c1ncn2[C@H]1C[C@@H]2NS(=O)(=O)OC[C@H]3O[C@@H](n4cnc5c(=O)[nH]cnc54)[C@H](F)[C@@H]3OP(=O)(O)OC[C@H]2O1` [Compound 28] yielded a pEC50 of 6.14. For `Nc1ncnc2c1ncn2[C@@H]1O[C@@H]2CNS(=O)(=O)O[C@H]3C[C@H](n4nnc5c(=O)[nH]cnc54)O[C@@H]3COP(=O)(O)O[C@H]2[C@H]1F` [Compound 42], the pEC50 was 4.00. For `Nc1ncnc2c1ncn2[C@@H]1O[C@@H]2CNS(=O)(=O)O[C@H]3[C@@H](F)[C@H](n4cnc5c(N)ncnc54)O[C@@H]3CO[P@@](=O)(S)O[C@H]2[C@H]1F` [Compound 2], the pEC50 was 7.92. `CO[C@@H]1[C@@H]2OS(=O)(=O)NC[C@H]3O[C@@H](n4cnc5c(N)ncnc54)[C@H](F)[C@@H]3OP(=O)(O)OC[C@H]2O[C@H]1n1cnc2c(=O)[nH]c(N)nc21` [Compound 4] showed a pEC50 of 4.19. `Nc1ncnc2c1ncn2[C@@H]1O[C@@H]2CNS(=O)(=O)O[C@H]3C[C@H](n4cnc5cncnc54)O[C@@H]3COP(=O)(O)O[C@H]2[C@H]1F` [Compound 33] was tested, and the pEC50 was 6.14. With `Nc1nc2c(ncn2[C@@H]2O[C@@H]3CNS(=O)(=O)O[C@H]4[C@H](F)[C@H](n5cnc6c(N)ncnc65)O[C@@H]4CO[P@](=O)(S)O[C@H]3[C@H]2F)c(=O)[nH]1` (single isomer, unassigned) [Compound 16-S] the pEC50 was 8.34. `Nc1nc2c(ncn2[C@@H]2O[C@@H]3CO[P@](=O)(S)O[C@H]4[C@@H](O)[C@H](n5cnc6c(N)ncnc65)O[C@@H]4CNS(=O)(=O)O[C@H]3[C@H]2F)c(=O)[nH]1` [Compound 14-S] was tested, and the pEC50 was < 4.00. Work on `Nc1ncnc2c1ncn2[C@@H]1O[C@@H]2CO[P@](=O)(S)O[C@H]3[C@@H](F)[C@H](n4cnc5c(=O)[nH]cnc54)O[C@@H]3COS(=O)(=O)O[C@H]2[C@H]1F` (single isomer, unassigned) [Compound 22-S] yielded a pEC50 of 7.01. `Nc1ncnc2c1ncn2[C@@H]1O[C@@H]2CNS(=O)(=O)O[C@H]3[C@@H](F)[C@H](n4cnc5c(N)ncnc54)O[C@@H]3CO[P@@](=O)(S)O[C@H]2[C@H]1F` [Compound 20-R] was tested, and the pEC50 was 6.46. For `Nc1ncnc2c1ncn2[C@@H]1O[C@@H]2CNS(=O)(=O)O[C@H]3[C@@H](F)[C@H](n4cnc5c(N)ncnc54)O[C@@H]3CO[P@](=O)(S)O[C@H]2[C@H]1F` (single isomer, unassigned) [Compound 3], the pEC50 was 6.27. In the case of `Nc1ncnc2c1ncn2[C@@H]1O[C@@H]2CNS(=O)(=O)O[C@H]3[C@@H](F)[C@H](n4cnc5c(N)ncnc54)O[C@@H]3CO[P@](=O)(S)O[C@H]2[C@H]1F` [Compound 20-S], the pEC50 was 4.21. `Nc1ncnc2c1ncn2[C@@H]1O[C@@H]2CNS(=O)(=O)O[C@H]3C[C@H](n4cnc5c(=O)[nH]ncc54)O[C@@H]3COP(=O)(O)O[C@H]2[C@H]1F` [Compound 43] gave a pEC50 of 6.14. Work on `Nc1ncnc2c1ncn2[C@@H]1O[C@@H]2CO[P@](=O)(S)O[C@H]3[C@@H](F)[C@H](n4cnc5c(=O)[nH]cnc54)O[C@@H]3CNS(=O)(=O)O[C@H]2[C@H]1F` (single isomer, unassigned) [Compound 31-S] yielded a pEC50 of 6.01. In the case of `Nc1nc2c(ncn2[C@@H]2O[C@@H]3CO[P@@](=O)(S)O[C@H]4[C@@H](O)[C@H](n5cnc6c(N)ncnc65)O[C@@H]4CNS(=O)(=O)O[C@H]3[C@H]2F)c(=O)[nH]1` [Compound 14-R], the pEC50 was 5.74. With `Nc1nc2c(ncn2[C@@H]2O[C@@H]3CO[P@@](=O)(S)O[C@H]4[C@@H](F)[C@H](n5cnc6c(N)ncnc65)O[C@@H]4CNS(=O)(=O)O[C@H]3[C@H]2F)c(=O)[nH]1` (single isomer, unassigned) [Compound 18-R] the pEC50 was 7.03. `Nc1ncnc2c1ncn2[C@@H]1O[C@@H]2CNS(=O)(=O)O[C@H]3[C@H]4OO[C@]3(CO[P@@](=O)(S)O[C@H]2[C@H]1F)O[C@H]4n1cnc2c(N)ncnc21` [Compound 37-R] gave a pEC50 of 6.06. For `Nc1ncnc2c1ncn2[C@@H]1O[C@@H]2CNS(=O)(=O)O[C@H]3[C@H]4OO[C@]3(CO[P@](=O)(S)O[C@H]2[C@H]1F)O[C@H]4n1cnc2c(N)ncnc21` [Compound 37-S], the pEC50 was 6.19. `Nc1ncnc2c1ncn2[C@@H]1O[C@@H]2COP(=O)(O)O[C@H]3[C@@H](F)[C@H](n4cnc5c(=O)[nH]cnc54)O[C@@H]3CNS(=O)(=O)O[C@H]2[C@H]1F` [Compound 24] was tested, and the pEC50 was 7.15. Molecule `Nc1nc2c(ncn2[C@@H]2O[C@@H]3CO[P@](=O)(S)O[C@H]4[C@@H](F)[C@H](n5cnc6c(N)ncnc65)O[C@@H]4CNS(=O)(=O)O[C@H]3[C@@H]2F)c(=O)[nH]1` (single isomer, unassigned) [Compound 34-S] has a pEC50 of 4.32. For `COc1ccc(CO[C@@H]2[C@@H]3OS(=O)(=O)NC[C@H]4O[C@@H](n5cnc6c(N)ncnc65)[C@H](F)[C@@H]4OP(=O)(O)OC[C@H]3O[C@H]2n2cnc3c(N)ncnc32)cc1` [Compound 15-R], the pEC50 was < 4.00. `Nc1ncnc2c1ncn2[C@@H]1O[C@@H]2CNS(=O)(=O)O[C@H]3[C@@H](F)[C@H](n4cnc5c(N)ncnc54)O[C@@H]3COP(=O)(O)O[C@H]2[C@H]1F` [Compound 1] showed a pEC50 of 6.80. Work on `Nc1ncnc2c1ncn2[C@@H]1O[C@@H]2CO[P@@](=O)(S)O[C@H]3[C@@H](F)[C@H](n4cnc5c(=O)[nH]cnc54)O[C@@H]3COS(=O)(=O)O[C@H]2[C@H]1F` (single isomer, unassigned) [Compound 22-R] yielded a pEC50 of 7.54. `Nc1ncnc2c1ncn2[C@@H]1O[C@@H]2CNS(=O)(=O)O[C@H]3C[C@H](n4cc(F)c5c(N)ncnc54)O[C@@H]3COP(=O)(O)O[C@H]2[C@H]1F` [Compound 29] was tested, and the pEC50 was < 4.00. For `Nc1nc2c(ncn2[C@@H]2O[C@@H]3COP(=O)(O)O[C@H]4[C@@H](F)[C@H](n5cnc6c(N)ncnc65)O[C@@H]4CNS(=O)(=O)O[C@H]3[C@@H]2F)c(=O)[nH]1` [Compound 26], the pEC50 was 7.52. `Nc1ncnc2c1ncn2[C@@H]1O[C@@H]2CNS(=O)(=O)O[C@H]3[C@@H](F)[C@H](n4cnc5c(N)ncnc54)O[C@@H]3CNS(=O)(=O)O[C@H]2[C@H]1F` [Compound 47] gave a pEC50 of 6.54. `Nc1nc2c(ncn2[C@@H]2O[C@@H]3COP(=O)(O)O[C@H]4[C@@H](O)[C@H](n5cnc6c(N)ncnc65)O[C@@H]4CNS(=O)(=O)O[C@H]3[C@H]2F)c(=O)[nH]1` [Compound 9] was tested, and the pEC50 was 5.20. `Nc1nc(N)c2ncn([C@@H]3O[C@@H]4COP(=O)(O)O[C@H]5[C@@H](F)[C@H](n6cnc7c(N)ncnc76)O[C@@H]5CNS(=O)(=O)O[C@H]4[C@H]3F)c2n1` [Compound 44] was tested, and the pEC50 was 5.58. Work on `Nc1nc2c(ncn2[C@@H]2O[C@@H]3CNS(=O)(=O)O[C@H]4[C@H](F)[C@H](n5cnc6c(N)ncnc65)O[C@@H]4COP(=O)(O)O[C@H]3[C@H]2F)c(=O)[nH]1` [Compound 13] yielded a pEC50 of 7.70.
